Measured values: patent publication US12280121B2, “Immunoconjugates and methods” (Immunome, Inc., priority 2021, dated 2025)
pIC50: −log10 of the molar value.

Key:
human liver microsome = experiment: Human liver microsome clearance (HLM CL); type: in vitro ADME; details: human liver microsomes 0.5 mg protein/mL, NADPH, 60 min
Procedure: Working solution was prepared by adding 5 μL of compound and control stock solution (10 mM in dimethyl sulfoxide, DMSO) to 495 μL of acetonitrile (ACN) (intermediate solution concentration: 100 μM, 99% CAN and 1% DMSO. The appropriate concentrations of microsome working solutions were prepared in 100 mM potassium phosphate buffer. After reaction plates containing mixtures of compound and microsomes were pre-incubated at 37° C. for 10 min, […] of 2 mM of NADPH and 2 mM of MgCl2 solution was added to start the reaction. The final concentrations of incubation medium were as follows: microsome—0.5 mg protein/mL, test compound/control […], NADPH—1 mM, MgCl2 —1 mM, acetonitrile 0.99%, DMSO 0.01%. Incubations were performed at 37° C. for 60 min. Samples were taken out at TO, T5, T15, T30, T45 and T60, which was added intermediately to the ice-cold stop solution (acetonitrile with 200 ng/mL of tobutamide and labetalol as internal standard) (125 μl), shaken for 10 min, centrifuged at 4000 rpm for 20 min at 4° C. Analytical plates were analyzed by LCMS.
(§1) Human liver microsome clearance assay assess metabolism by the cytochrome P450 system (phase I enzymes). These enzymes oxidize substrates by incorporating oxygen atoms into hydrocarbons, thus causing the introduction of hydroxyl groups, or N- O- and S-dealkylation of substrates and forming more polar products easier to be cleared. Human hepatocyte clearance assay measures more broadly the overall cellular metabolism of the test compound (phase I and phase II enzyme pathways). Phase II enzymes catalyze the conjugation reaction of xenobiotic metabolites and charged species, such as glutathione, sulfate, glycine, or glucuronic acid to form even more polar compounds for easier clearance.

MDA-MB-468 = experiment: CTG assay (CellTiter-Glo cell viability), MDA-MB-468, payload compounds; type: cell-based; details: 72 h, CellTiter-Glo; read-out: MDA-MB-468 IC50
Text: (§2) The CTG assay is a method of determining the number of viable cells in culture based on quantitation of the ATP present, an indicator of metabolically active cells. The cell assay requires the addition of a single reagent, Cell Titer Glo, in which cells are lysed and generation of a luminescent signal is produced. The luminescent signal is proportional to the amount of ATP present. The amount of ATP is directly proportional to the number of cells present in culture. For our assay, cells were ensured to be in log-phase for either Jeko-1 or MDA-MB-468. Cells were transferred to 96 wells and treated with compounds in three-fold serial dilution starting from 1 μM to 0.0000508 μM (10 points dilution), for 72 h. Cell viability was analyzed with CellTiter-Glo® Luminescent Cell Viability Assay (Promega) following manufactures' instruction. Percentage of viable cells in each compound concentration was determined by normalizing with the luminescence of vehicle control and plotted into percentage of viability versus dose response curve by nonlinear fit in GraphPad Prism software.

Jeko-1 [1] = experiment: CTG assay of ROR-1 ADCs and toxins, JeKo-1; type: cell-based
Procedure: FIG. 33 illustrates a CTG assay wherein ROR+ (JeKo-1) cells were incubated with the ADCs generated as described in FIG. 32 in serial three-fold dilutions and cell viability was assessed after 72 hours.
as §2
Novel ROR-1 antibody-drug conjugates (ADCs) were evaluated by CTG Assay in a similar manner as was described in Example 24 for screening of payloads. […] Briefly ROR+(JeKo-1/MDA-MB-468) or ROR− (Ramos) cells were transferred to 96 wells and treated with the ADCs in three-fold serial dilution starting from […] (10 points dilution), for 72 h. Cell viability was analyzed with CellTiter-Glo® Luminescent Cell Viability Assay (Promega) following the manufactures' instructions (FIG. 33). The percentage of viable cells at each ADC concentration was determined by normalizing with the luminescence of vehicle control and plotted into percentage of viability versus dose response curve by nonlinear fit in GraphPad Prism software.

human hepatocytes = experiment: Human hepatocyte clearance (HHEP CL); type: in vitro ADME; details: human hepatocytes, 90 min incubation
Procedure: Suspensions of human hepatocytes (from 10 mixed gender human donors, final concentration 0.5×10^6 cell/mL) in Williams' E medium were incubated for 90 min with a test compound (0.90% acetonitrile and 0.10% DMSO, final concentration […]) and positive controls (7-Ethoxycoumarin, 7-Hydroxycoumarin, 0.90% acetonitrile and 0.10% DMSO, final concentration […]), with constant shaking at about 600 rpm at 37° C. in an incubator at 5% CO2 and 95% humidity. The total volume of incubation was 200 μl. A sample ([…]) was taken out at TO, 15, 30, 60 and 90 min, which was added intermediately to the ice-cold stop solution (acetonitrile with 200 ng/mL of tobutamide and labetalol as internal standard) (125 μl), and vortexed at 500 rpm for 10 min, centrifuged at 3220×g for 20 min at 4° C. Analytical plates are sealed and stored at 4° C. until LCMS analysis. Viability of hepatocytes at pre-incubation was determined to be 84.5%.
as §1

Jeko-1 [2] = experiment: CTG assay (CellTiter-Glo cell viability), Jeko-1, payload compounds; type: cell-based; details: 72 h, CellTiter-Glo; read-out: JeKo-1 IC50
Text: as §2

[3] = AC-SINS self-interaction assay; type: physicochemical; details: FIG. 30
Procedure: Antibody developability was assessed by performing an AC-SINS assay and evaluating the potential for self-interaction.
An initial assessment of antibody developability was performed by AC-SINS to evaluate the potential for self-interaction (FIG. 30).

Compound | HLM (T1/2) (human liver microsome) | HLM Cl (human liver microsome clearance) (human liver microsome) | pIC50 (MDA-MB-468) | pIC50 (Jeko-1 [1]; Jeko-1, average of run 1 and run 2, read-out: Avg. IC50) | pIC50 (Jeko-1 [1]; Jeko-1 P3, run 1, 72 h, read-out: Jeko-1 P3 (RUN1) IC50) | HHEP (T1/2) (human hepatocytes) | HHEP Cl (human hepatocytes intrinsic clearance) (human hepatocytes) | pIC50 (Jeko-1 [2]) | AC-SINS shift (self-interaction) [3]
CC[C@@]1(O)C(=O)OCc2c1cc1n(c2=O)Cc2c-1nc1cc(F)c(C)c3c1c2[C@@H](NC(=O)CO)CC3 [Dxd, reference compound] | (>145) | 8.6 mL/min/kg | 7.94 | 9.05 | 9.05 | (79.0) min | 48.7 mL/min/kg | 8.85 | 
Adalimumab |  |  |  |  |  |  |  |  | low shift
